Measurements as given in ChEMBL document CHEMBL6074678, “Selectively Antagonizing the NOD1-Mediated Inflammatory Signaling Pathway Mitigates the Gastric Inflammation Induced by Helicobacter pylori Infection” (J Med Chem, 2024).
Activity calls are given as the source filed them. The calls are words filed in the database; no cut-off is given here.

How the values were obtained:
[1] = Clearance in C57BL/6 mouse at 2 mg/kg, iv by LC-MS/MS analysis; format: ADME, organism-based; details: in vivo
Mus musculus [2] = experiment: Anti-inflammatory activity in C57BL/6 mouse model of Helicobacter pylori-induced gastric inflammation assessed as reduction in IL-6 level in gastric tissue at 50 mg/kg, po pretreated with compound upto 24 hrs followed by infection of Helicobacter pylori measured upto 72 hrs; format: functional, organism-based; details: time <= 96.0 hrs
Mus musculus [3] = experiment: Anti-inflammatory activity in C57BL/6 mouse assessed as inhibition of serum keratinocyte chemoattractant level pretreated orally with compound for 15 mins followed by C12-iE-DAP administration measured after 2 hrs by ELISA; format: functional, organism-based; details: dose 12.5-50 mg/kg, route po, time 135.0 min
THP-1 = experiment: Anti-inflammatory activity in human THP-1 cells assessed as decrease in IL-6 mRNA level at 5 uM pretreated for 1 hr followed by infection with Helicobacter pylori for 2 hrs by RT-qPCR analysis relative to control; format: functional; design: scale not given: the % may be the effect or the level left; details: time 3 hrs
AGS = experiment: Anti-inflammatory activity in human AGS cells assessed as decrease in CXCL8 mRNA level at 1 uM pretreated for 1 hr followed by C12-iE-DAP stimulation for 2 hrs by RT-qPCR analysis; format: functional, cell-based; details: time 3.0 hrs
[4] = target: T1, Nucleotide-binding oligomerization domain-containing protein 1 (Homo sapiens) (UniProt Q9Y239); experiment: Antagonist activity at NOD1 in human THP-1 cells assessed as decrease in phosphorylated p65 level at 0.1 to 1 uM incubated for 1 hr followed by C12-iE-DAP stimulation for 30 mins by Western blot analysis; format: cell-based; details: filed as antagonist, dose 0.1-1 µM, time 1.5 hrs
T1 sequence (whole entry): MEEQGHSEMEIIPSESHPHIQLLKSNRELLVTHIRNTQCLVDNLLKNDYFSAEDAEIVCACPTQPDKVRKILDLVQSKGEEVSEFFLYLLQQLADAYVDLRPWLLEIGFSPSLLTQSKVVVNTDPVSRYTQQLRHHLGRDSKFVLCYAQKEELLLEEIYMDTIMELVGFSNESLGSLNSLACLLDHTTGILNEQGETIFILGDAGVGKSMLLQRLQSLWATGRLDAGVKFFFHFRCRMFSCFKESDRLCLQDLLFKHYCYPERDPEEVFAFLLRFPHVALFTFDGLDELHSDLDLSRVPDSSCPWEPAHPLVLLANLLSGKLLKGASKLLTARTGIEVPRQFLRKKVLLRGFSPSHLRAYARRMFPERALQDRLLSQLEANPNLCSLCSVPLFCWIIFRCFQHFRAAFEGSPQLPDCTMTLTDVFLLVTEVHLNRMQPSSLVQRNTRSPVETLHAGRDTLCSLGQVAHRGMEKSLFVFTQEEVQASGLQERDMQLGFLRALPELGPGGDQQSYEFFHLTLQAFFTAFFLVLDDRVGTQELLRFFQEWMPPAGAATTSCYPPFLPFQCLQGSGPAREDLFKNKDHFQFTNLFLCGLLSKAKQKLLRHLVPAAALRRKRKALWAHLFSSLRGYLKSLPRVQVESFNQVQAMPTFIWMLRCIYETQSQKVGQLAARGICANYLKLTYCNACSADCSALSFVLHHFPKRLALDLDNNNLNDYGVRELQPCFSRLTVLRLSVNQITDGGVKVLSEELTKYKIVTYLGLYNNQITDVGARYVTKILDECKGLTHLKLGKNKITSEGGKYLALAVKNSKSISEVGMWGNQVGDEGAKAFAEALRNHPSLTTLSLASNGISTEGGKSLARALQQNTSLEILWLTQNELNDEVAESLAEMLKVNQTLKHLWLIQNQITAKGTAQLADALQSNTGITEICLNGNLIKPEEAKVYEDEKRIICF

[5] = MRT (infinity) in C57BL/6 mouse at 2 mg/kg, iv by LC-MS/MS analysis; format: ADME, organism-based; details: in vivo
[6] = Half life in C57BL/6 mouse at 20 mg/kg, po by LC-MS/MS analysis; format: ADME, organism-based; details: in vivo
[7] = target: T1, Nucleotide-binding oligomerization domain-containing protein 1 (Homo sapiens); experiment: Thermal stabilization of NOD1 (unknown origin) transfected in HEK293 cells at 0.1 to 5 uM incubated for 1 hr heated at higher temperature by CETSA; format: cell-based; details: dose 0.1-5 µM
[8] = target: T1, Nucleotide-binding oligomerization domain-containing protein 1 (Homo sapiens); experiment: Antagonist activity at NOD1 in human THP-1 cells assessed as decrease in phosphorylated RIP2 level at 0.1 to 1 uM incubated for 1 hr followed by C12-iE-DAP stimulation for 30 mins by Western blot analysis; format: cell-based; details: filed as antagonist, dose 0.1-1 µM, time 1.5 hrs
[9] = AUC (infinity) in C57BL/6 mouse at 2 mg/kg, iv by LC-MS/MS analysis; format: ADME, organism-based; details: in vivo
[10] = Cytotoxicity against HEK-Blue mNOD1 cells by SRB assay; format: toxicity, cell-based; details: human
[11] = target: T2, Nucleotide-binding oligomerization domain-containing protein 1 (Mus musculus) (UniProt Q8BHB0); experiment: Antagonist activity at NOD1 in mouse BMDM cells assessed as decrease in phosphorylated RIP2 level at 0.1 to 1 uM incubated for 1 hr followed by C12-iE-DAP stimulation for 30 mins by Western blot analysis; format: cell-based; details: filed as antagonist, dose 0.1-1 µM, time 1.5 hrs
T2 sequence (whole entry): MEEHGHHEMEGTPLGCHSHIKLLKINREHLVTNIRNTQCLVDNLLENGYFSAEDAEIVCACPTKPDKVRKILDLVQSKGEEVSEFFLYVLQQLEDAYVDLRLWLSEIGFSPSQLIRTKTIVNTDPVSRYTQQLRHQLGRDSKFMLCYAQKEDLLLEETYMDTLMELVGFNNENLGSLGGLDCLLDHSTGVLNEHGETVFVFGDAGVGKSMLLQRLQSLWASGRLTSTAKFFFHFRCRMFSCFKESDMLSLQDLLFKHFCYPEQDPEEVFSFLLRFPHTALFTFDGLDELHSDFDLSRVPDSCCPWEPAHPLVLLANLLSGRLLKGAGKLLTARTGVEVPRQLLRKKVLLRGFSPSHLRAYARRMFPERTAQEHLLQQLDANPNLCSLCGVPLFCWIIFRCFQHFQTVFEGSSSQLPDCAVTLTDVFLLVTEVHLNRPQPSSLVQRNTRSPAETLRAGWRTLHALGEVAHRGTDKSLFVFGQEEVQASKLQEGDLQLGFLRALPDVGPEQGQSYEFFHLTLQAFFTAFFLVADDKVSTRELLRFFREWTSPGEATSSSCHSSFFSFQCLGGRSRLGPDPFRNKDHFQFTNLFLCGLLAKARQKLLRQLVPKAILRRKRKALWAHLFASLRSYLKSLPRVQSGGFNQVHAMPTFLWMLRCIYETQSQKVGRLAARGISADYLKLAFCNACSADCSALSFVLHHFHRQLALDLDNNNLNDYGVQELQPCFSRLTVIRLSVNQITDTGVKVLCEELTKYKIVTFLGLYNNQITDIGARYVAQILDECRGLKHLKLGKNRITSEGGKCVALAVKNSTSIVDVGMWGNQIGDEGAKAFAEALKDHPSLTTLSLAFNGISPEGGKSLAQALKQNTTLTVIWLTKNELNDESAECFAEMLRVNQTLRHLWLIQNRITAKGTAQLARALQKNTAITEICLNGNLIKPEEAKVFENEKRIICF

- clearance [1]: 474 mL/min/kg
- inhibition [4]: Active
- MRT inf [5]: 2.76 min
- half-life [6]: 3.15 h
- Activity [7]: Active
- inhibition [8]: Active
- AUC [9]: 75.3 ng·h/mL
- inhibition [11]: Active
Structure (SMILES): CS(=O)(=O)c1ccc2nc(Cl)n(-c3ccc(Cl)c(NS(=O)(=O)c4c(F)cccc4F)c3)c(=O)c2c1
- Activity (Mus musculus [2]): Active
- inhibition (Mus musculus [3]): Dose-dependent-effect
- Activity (THP-1): 100%
- Activity (AGS): Active
- Activity [10]: Non-toxic
